Laboratory results as given in patent US9102648B1, “Bioavailable diacylhydrazine ligands for modulating the expression of exogenous genes via an ecdysone receptor complex” (Intrexon Corporation, priority 2003, dated 2015).
Like-named read-outs stand apart in the source and are kept apart here.

Assays:
[1] = target: T1, Bombyx mori EcR (VP16 fusion, CVBE switch construct) (Bombyx mori, UniProt P49881); assay: Z3 Assay (HEK-293 cells with CVBE and 6XEcRE LacZ, β-galactosidase reporter); conditions: for Fold Induction, Z3 Assay, 3.3 uM: 3.3 uM ligand; for Fold Induction, Z3 Assay, 3.3 uM / Fold Induction, Z3 Assay, 33 uM: ligand treated / DMSO treated cells; for Fold Induction, Z3 Assay, 33 uM: 33 uM ligand; for Z3 assay Rel Max FI: maximum fold induction at any concentration relative to that of GS-E ligand; for fold induction at 33 µM: HEK293, read-out: Fold Induction, Z3 Assay, 33 uM; for fold induction at 3.3 µM: HEK293, read-out: Fold Induction, Z3 Assay, 3.3 uM
T1 sequence (P49881 86-606): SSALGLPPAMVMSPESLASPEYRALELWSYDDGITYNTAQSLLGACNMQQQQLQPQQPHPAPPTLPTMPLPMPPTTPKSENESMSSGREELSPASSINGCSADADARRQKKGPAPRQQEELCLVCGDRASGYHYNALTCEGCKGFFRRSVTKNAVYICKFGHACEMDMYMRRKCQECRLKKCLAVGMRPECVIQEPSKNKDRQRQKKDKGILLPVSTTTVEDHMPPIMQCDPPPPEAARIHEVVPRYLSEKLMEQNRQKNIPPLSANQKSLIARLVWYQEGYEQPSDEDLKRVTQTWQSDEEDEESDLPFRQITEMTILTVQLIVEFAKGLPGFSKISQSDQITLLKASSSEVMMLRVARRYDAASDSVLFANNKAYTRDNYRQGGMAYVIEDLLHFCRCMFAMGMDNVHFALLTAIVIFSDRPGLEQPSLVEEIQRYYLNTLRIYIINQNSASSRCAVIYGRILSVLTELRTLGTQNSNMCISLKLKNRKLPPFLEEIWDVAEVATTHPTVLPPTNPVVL
T1 sequence (P19793 1-462 partner): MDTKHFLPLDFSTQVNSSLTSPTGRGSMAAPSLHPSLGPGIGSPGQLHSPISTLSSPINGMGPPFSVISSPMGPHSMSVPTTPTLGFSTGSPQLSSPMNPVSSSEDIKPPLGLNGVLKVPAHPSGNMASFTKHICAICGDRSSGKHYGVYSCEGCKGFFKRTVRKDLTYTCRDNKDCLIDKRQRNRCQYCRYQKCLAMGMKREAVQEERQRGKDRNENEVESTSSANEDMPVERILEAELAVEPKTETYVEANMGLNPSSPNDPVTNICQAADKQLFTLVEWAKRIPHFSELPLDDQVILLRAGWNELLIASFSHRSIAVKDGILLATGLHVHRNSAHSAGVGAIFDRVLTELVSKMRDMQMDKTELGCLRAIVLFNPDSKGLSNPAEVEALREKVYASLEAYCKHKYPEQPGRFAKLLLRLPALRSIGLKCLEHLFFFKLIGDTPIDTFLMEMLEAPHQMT

[2] = target: GAL4 DBD-CfEcR(DEF)/VP16AD-MmRXRE (Choristoneura fumiferana, UniProt O77240); assay: 13B3 Assay (CHO stable cell line, luciferase reporter); conditions: for Fold Induction, 13B3 Assay, 3.3 uM: 3.3 uM ligand; for Fold Induction, 13B3 Assay, 3.3 uM / Fold Induction, 13B3 Assay, 33 uM: RLU ligand treated / RLU DMSO treated cells; for Fold Induction, 13B3 Assay, 33 uM: 33 uM ligand; for 13B3 assay Rel Max FI: maximum fold induction at any concentration relative to that of GS-E ligand, CHO 13B3 cells; for fold induction at 33 µM: read-out: Fold Induction, 13B3 Assay, 33 uM; for fold induction at 3.3 µM: read-out: Fold Induction, 13B3 Assay, 3.3 uM
Text: GAL4 DBD-CfEcR(DEF)/VP16AD-MmRXRE:
The wild-type D, E, and F domains from spruce budworm Choristoneura fumiferana EcR (“CfEcR-DEF”; SEQ ID NO: 1) were fused to a GALA DNA binding domain (“Gal4DBD1-147”; SEQ ID NO: 2) and placed under the control of the SV40e promoter of pM vector (PT3119-5, Clontech, Palo Alto, Calif.). The D and E domains from Mus Musculus RXR (“MmRXR-DE”; SEQ ID NO: 11) were fused to the transactivation domain from VP16 (“VP16AD”; SEQ ID NO: 6) and placed under the control of the SV40e promoter of the pVP16 vector (PT3127-5, Clontech, Palo Alto, Calif.).
CHO cells were transiently transfected with transcription cassettes for GAL4 DBD-CJEcR(DEF) and for VP16AD-MmRXRE controlled by SV40e promoters. Stably transfected cells were selected using Hygromycin. Individually isolated CHO cell clones were transiently transfected with a GALA RE-luciferase reporter (pFR-Luc, Stratagene, La Jolla, Calif.). The 13B3 clone was selected using Zeocin.
Cells were trypsinized and diluted to a concentration of 2.5×10^4 cells mL. 100 μL of cell suspension was placed in each well of a 96 well plate and incubated at 37° C. under 5% CO2 for 24 h. Ligand stock solutions were prepared in DMSO and diluted 300 fold for all treatments. Dose response testing consisted of 8 concentrations ranging from 33 μM to 0.01 μM.
Luciferase reporter gene expression was measured 48 h after cell treatment using Bright-Glo™ Luciferase Assay System from Promega (E2650). Luminescence was detected at room temperature using a Dynex MLX microtiter plate luminometer.
Each assay was conducted in two separate wells, and the two values were averaged. Fold inductions were calculated by dividing relative light units (“RLU”) in ligand treated cells with RLU in DMSO treated cells. EC50s were calculated from dose response data using a three-parameter logistic model.

[3] = read-out: Z3 assay EC50, HEK-293 Z3 cells, β-galactosidase reporter, average of two wells
[4] = read-out: 13B3 EC50, CHO 13B3 stable cell line, luciferase reporter, 48 h, average of two wells

| SMILES | Fold Induction, Z3 Assay, 3.3 uM ([1]; average of two wells) | Fold Induction, Z3 Assay, 33 uM ([1]; average of two wells) | Z3 assay Rel Max FI ([1]; HEK-293 Z3 cells) | EC50 [1, 3] [nM] | Fold Induction, 13B3 Assay, 3.3 uM ([2]; average of two wells) | Fold Induction, 13B3 Assay, 33 uM ([2]; average of two wells) | 13B3 assay Rel Max FI [2] | EC50 [2, 4] [nM] | fold induction at 33 µM [1] | fold induction at 33 µM [2] | EC50 [1] [nM] | fold induction at 3.3 µM [1] | EC50 [2] [nM] | fold induction at 3.3 µM [2] |
| --- | --- | --- | --- | --- | --- | --- | --- | --- | --- | --- | --- | --- | --- | --- |
| CC(C)(C)N(NC(=O)c1ccc(Br)cc1)C(=O)c1cc(Cl)cc(Cl)c1 [RG-101759] | 796 | 158 | 0.639 | 331 | 623 | 137 | 0.336 | 877 | – | – | – | – | – | – |
| CCc1ccc(C(=O)NN(C(=O)c2cc(C)c(Cl)c(C)c2)C(C)(C)C)cc1 [RG-101862] | 717 | 250 | 0.866 | 269 | 3279 | 293 | 0.861 | 1050 | – | – | – | – | – | – |
| CCc1ccc(C(=O)NN(C(=O)c2cc(C)cc(C)c2)C(C)(C)C)cc1CC [RG-101889] | 1085 | 245 | – | 3300 | – | 378 | – | – | – | – | – | – | – | – |
| Cc1cc(C)cc(C(=O)N(NC(=O)c2ccc3c(c2C)CCCO3)C(C)(C)C)c1 [RG-102408] | 249 | – | 1.114 | 54 | 25 | – | 0.662 | 91 | – | – | – | – | – | – |
| CCC(N(NC(=O)c1cccc(C)c1C)C(=O)c1cccc(C)c1)C(C)(C)C (stereo not shown) [RG-104074] | 189 | 200 | 1.122 | 307 | 544 | 5378 | 0.812 | 865 | – | – | – | – | – | – |
| C=CCOCc1c(OC)cccc1C(=O)NN(C(=O)c1cc(C)cc(C)c1)C(C)(C)C [RG-115003, 3,5-dimethyl-benzoic acid N′-(2-allyloxymethyl-3-methoxy-benzoyl)-N-tert-butyl-hydrazide] | – | – | – | – | – | – | – | – | 1280 | 301 | – | – | – | – |
| CCc1c(OC)cccc1C(=O)NN(C(=O)c1cc(C)cc(C)c1)C(C)(C)COC [RG-115006, 2-ethyl-3-methoxy-benzoic acid N′-(3,5-dimethyl-benzoyl)-N′-(2-methoxy-1,1-dimethyl-ethyl)-hydrazide] | – | – | 1.031 | – | – | – | 0.890 | – | 1070 | 3150 | 275 | 415 | 3500 | 4180 |
| CCc1c(OC)cccc1C(=O)NN(C(=O)c1cccc(Br)c1)C(C)(C)C [RG-115038] | 600 | 321 | 1.064 | 550 | 4119 | 4970 | 1.172 | 1740 | – | – | – | – | – | – |
| CCc1c(OC)cccc1C(=O)NN(C(=O)c1cc(C)cc(C)c1)C(C)(C)C#N [RG-115043] | 466 | 1588 | 0.943 | 178 | 835 | 547 | 0.852 | 2670 | – | – | – | – | – | – |
| CCc1ccc(C(=O)NN(C(=O)c2ccc(OC)nc2OC)C(C)(C)C)c(F)c1 [RG-115050] | 424 | 1446 | 0.808 | 282 | 2027 | 894 | 0.724 | 762 | – | – | – | – | – | – |
| Cc1c(C(=O)NN(C(=O)c2ccccc2[S+](C)[O-])C(C)(C)C)ccc2c1OCCO2 (stereo not shown) [RG-115064] | 1 | 3 | 0.031 | > 50000 | 2 | 415 | 0.000 | > 50000 | – | – | – | – | – | – |
| Cc1cc(C)cc(C(=O)N(NC(=O)c2ccc3c(c2F)COCO3)C(C)(C)C)c1 [RG-115068] | 54 | 802 | 0.804 | 21000 | 2828 | 1500 | 0.722 | 926 | – | – | – | – | – | – |
| CCc1ccc(C(=O)NN(C(=O)c2cc(OC)c(C)c(OC)c2)C(C)(C)C)c(F)c1 [RG-115077] | 294 | – | 0.911 | 389 | 932 | 199 | 1.509 | 847 | – | – | – | – | – | – |
| CNCc1c(OC)cccc1C(=O)NN(C(=O)c1cc(C)cc(C)c1)C(C)(C)C [RG-115079, 3,5-dimethyl-benzoic acid N-tert-butyl-N′-(2-methylaminomethyl-3-methoxy-benzoyl)-hydrazide] | – | – | 0.02 | – | – | – | 0.20 | – | – | – | > 50000 | 1 | 20 | 3 |
| CCc1c(OC)cccc1C(=O)NN(C(=O)c1cc(F)cc(C(F)(F)F)c1)C(C)(C)C [RG-115088] | 561 | 228 | 0.958 | 501 | 542 | 1048 | 0.709 | 1830 | – | – | – | – | – | – |
| CCc1c(OC)cccc1C(=O)NN(C(=O)c1cnc(C)cn1)C(C)(C)C [RG-115091] | – | 61 | – | – | – | 1 | – | – | – | – | – | – | – | – |
| CCc1c(OC)cccc1C(=O)NN(C(=O)c1cc(OC)c(O)c(OC)c1)C(C)(C)C [RG-115116] | 276 | – | 0.960 | 3310 | 2 | – | 1.172 | > 50000 | – | – | – | – | – | – |
| COc1cccc(C(=O)NN(C(=O)c2cc(C)cc(C)c2)C(C)(C)C)c1CF [RG-115160] | 3 | 157 | 0.21 | > 50000 | 3 | 3 | 0 | > 50000 | – | – | – | – | – | – |
| Cc1c(C(=O)NN(C(=O)c2cc(F)cc(C(F)(F)F)c2)C(C)(C)C)ccc2c1OCCO2 [RG-115169] | 443 | – | 0.956 | 347 | 405 | – | 0.618 | 497 | – | – | – | – | – | – |
